Source: patent US10166218B2, “3-(1H-indol-2-yl)-1H-pyrazolo[3,4-C]pyridines and therapeutic uses thereof” (Samumed, LLC, priority 2015, dated 2019)

What was measured:
Format in all cases: cell-based
[1] = tested on: Wnt activity (Sp5-Luc reporter, TCF/LEF binding sites) in SW480 colon carcinoma cells; experiment: Screening assay for Wnt activity: Sp5-Luc reporter gene assay in stably transduced SW480 cells; details: Homo sapiens, overnight incubation
Description: The screening assay for Wnt activity is described as follows. Reporter cell lines can be generated by stably transducing cancer cell lines (e.g., colon cancer) or primary cells (e.g., IEC-6 intestinal cells) with a lentiviral construct that includes a Wnt-responsive promoter driving expression of the firefly luciferase gene.
SW480 colon carcinoma cells were transduced with a lentiviral vector expressing luciferase with a human Sp5 promoter consisting of a sequence of eight TCF/LEF binding sites. SW480 cells stably expressing the Sp5-Luc reporter gene and a hygromycin resistance gene were selected by treatment with 150 μg/mL of hygromycin for 7 days. These stably transduced SW480 cells were expanded in cell culture and used for all further screening activities. Each compound was dissolved in DMSO as a 10 mM stock and used to prepare compound source plates. Serial dilution (1:3, 10-point dose-response curves starting from 10 μM) and compound transfer was performed using the ECHO 550 (Labcyte, Sunnyvale, Calif.) into 384-well white solid bottom assay plates (Greiner Bio-One) with appropriate DMSO backfill for a final DMSO concentration of 0.1%. For Sp5-Luc reporter gene assays, the cells were plated at 4,000 cells/well in 384-well plates with medium containing 1% fetal bovine serum and incubated overnight at 37° C. and 5% CO2. Following incubation, 20 μl of BrightGlo luminescence reagent (Promega) was added to each well of the 384-well assay plates. The plates were placed on an orbital shaker for 2 min and then luminescence was quantified using the Envision (Perkin Elmer) plate reader. Readings were normalized to DMSO only treated cells, and normalized activities were utilized for EC50 calculations using the dose-response log (inhibitor) vs. response-variable slope (four parameters) nonlinear regression feature available in GraphPad Prism 5.0 (or Dotmatics). For EC50 of >10 μM, the percent inhibition at 10 μM is provided.

[2] = tested on: SW480 colon cancer cells; experiment: Cell viability assay (CellTiter-Blue) in SW480 colon cancer cells; details: Homo sapiens, 96 h, four days, CellTiter-Blue
Method: Representative compounds were screened using the following assay procedure to assess the effect on cell viability as described below.
Each compound was dissolved in DMSO as a 10 mM stock and used to prepare compound source plates. Serial dilution (1:3, 8-point dose-response curves from 10 μM to 0.0045 μM) and compound transfer was performed using the ECHO 550 (Labcyte, Sunnyvale, Calif.) into 96-well clear bottom, black-walled plates (Corning-Costar).
Approximately 2×10^3 SW480 colon cancer cells were seeded into each well and allowed to incubate in the presence or absence of compound for four days at 37° C./5% CO2. Eight replicates of DMSO-treated cells served as controls and cells treated with compound were performed in duplicate.
After incubation, 20 μL of CellTiter-Blue (Promega) was added to each well allowed to incubate for approximately 3 hours. This reagent was a buffered solution which contains resazurin, metabolically active cells were able to reduce rezarurin (blue) into resorufin (pink) which was highly fluorescent. This measured fluorescence was used as a readout for cell viability.
After incubation, the plates were read at Ex 560 nm Em 590 nm (Cytation 3, BioTek). Dose-response curves were generated and EC50 concentration values were calculated using non-linear regression curve fit in the GraphPad Prism (San Diego, Calif.) or Dotmatics' Studies Software (Bishops Stortford, UK). For EC50 of >10 μM, the percent inhibition at 10 μM is provided.

[3] = tested on: primary human fibroblasts derived from IPF patients (LL29 cells) treated with TGF-β1; α-smooth muscle actin (αSMA); experiment: Inhibition of the fibrotic process: αSMA staining in TGF-β1 treated primary human fibroblasts from IPF patients (LL29 cells); details: Fibroblast, 96 h, TGF-β1 20 ng/mL, 4 days, % cells positive for αSMA
Description: Representative compounds were screened using primary human fibroblasts (derived from IPF patients) treated with TGF-β1 to determine their ability to inhibit the fibrotic process.
Primary human fibroblasts derived from IPF patients (LL29 cells) [^1Xiaoqiu Liu, et. al., “Fibrotic Lung Fibroblasts Show Blunted Inhibition by cAMP Due to Deficient cAMP Response Element-Binding Protein Phosphorylation”, Journal of Pharmacology and Experimental Therapeutics (2005), 315(2), 678-687; ^2Watts, K. L., et. al., “RhoA signaling modulates cyclin D1 expression in human lung fibroblasts; implications for idiopathic pulmonary fibrosis”, Respiratory Research (2006), 7(1), 88] were obtained from American Type Culture Collection (ATCC) and expanded in F12 medium supplemented with 15% Fetal Bovine Serum and Penicillin/Streptomycin.
Each compound was dissolved in DMSO as a 10 mM stock and used to prepare compound source plates. Serial dilution (1:2, 11-point dose-response curves from 10 μM to 1.87 nM) and compound transfer was performed using the ECHO 550 (Labcyte, Sunnyvale, Calif.) into 384-well clear bottom assay plates (Greiner Bio-One) with appropriate DMSO backfill for a final DMSO concentration of 0.1%. LL29 cells are plated at 1,500 cells/well in 80 μL/well F12 medium supplemented with 1% Fetal Bovine Serum. One hour after addition of the cells, TGF-β1 (Peprotech; 20 ng/mL) was added to the plates to induce fibrosis (ref. 1 and 2 above). Wells treated with TGF-β1 and containing DMSO were used as controls. Cells were incubated at 37° C. and 5% CO2 for 4 days. Following incubation for 4 days, SYTOX green nucleic acid stain (Life Technologies [Thermo Fisher Scientific]) was added to the wells at a final concentration of 1 μM and incubated at room temperature for 30 min. Cells were then fixed using 4% formaldehyde (Electron Microscopy Sciences), washed 3 times with PBS followed by blocking and permeabilization using 3% Bovine Serum Albumin (BSA; Sigma) and 0.3% Triton X-100 (Sigma) in PBS. Cells were then stained with antibody specific to α-smooth muscle actin (αSMA; Abcam) (ref. 1 and 2 above) in 3% Bovine Serum Albumin (BSA; Sigma) and 0.3% Triton X-100 (Sigma) in PBS, and incubated overnight at 4° C. Cells were then washed 3 times with PBS, followed by incubation with Alexa Flor-647 conjugated secondary antibody (Life Technologies [Thermo Fisher Scientific]) and DAPI at room temperature for 1 hour. Cells were then washed 3 times with PBS and plates were sealed for imaging. αSMA staining was imaged by excitation at 630 nm and emission at 665 nm and quantified using the Compartmental Analysis program on the CellInsight CX5 (Thermo Scientific). Dead or apoptotic cells were excluded from analysis based on positive SYTOX green staining. % of total cells positive for αSMA were counted in each well and normalized to the average of 11 wells treated with TGF-β1 on the same plate using Dotmatics' Studies Software. The normalized averages (fold change over untreated) of 3 replicate wells for each compound concentration were used to create dose-responses curves and EC50 values were calculated using non-linear regression curve fit in the Dotmatics' Studies Software. For EC50 of >10 μM, the percent inhibition at 10 μM is provided.

[4] = tested on: IL-6 (THP-1 cells); experiment: Inhibition of IL-6 in LPS-stimulated THP-1 human monocyte cells (HTRF); details: inhibition of IL-6 in LPS-stimulated THP-1 cells, HTRF, 10-point dose-response starting from 10 μM
Method: Human monocyte cell line (THP-1 cells; Catalog # TIB-202, ATCC, Manassas, Va.) were cultured in Roswell Park Memorial Institute (RPMI) 1640 Medium (Catalog #21870-100, Buffalo, N.Y.) with 1% L-glutamine, 1% HEPES, 1% Sodium Pyruvate, 2% Sodium Bicarbonate supplemented with 100 units/mL penicillin, 50 μg/mL streptomycin, 2-mercaptoethanol (0.05 mM) [basal medium] and 10% fetal bovine serum (Catalog #16140089, Life Technologies, Carlsbad, Calif.) at 37° C. and 5% CO2.
THP-1 cells were cultured in basal media with 1% FBS for 24 hours before the start of the assay. Each compound was dissolved in DMSO as a 10 mM stock and used to prepare compound source plates. Serial dilution (1:3, 10-point dose-response curves starting from 10 μM) and compound transfer was performed using the ECHO 550 (Labcyte, Sunnyvale, Calif.) into 384-well white low volume assay plates (Greiner Bio-One) with appropriate DMSO backfill for a final DMSO concentration of 0.1%. THP-1 cells were plated at 5000 cells/well in the 384-well plates and incubated at 37° C. for 2 h. 500 ng/mL of LPS was added after 2 hours and cells were incubated for another 22 hours at 37° C. Plates were spun in a centrifuge for 1 minute at […] and a mixture of anti-IL6 XL665, and anti-IL6 Cryptate diluted in reconstitution buffer (Cisbio Inc.) was added to each well. Following incubation for 3 hrs at room temperature, Homogeneous Time-Resolved Fluorescence (HTRF) was measured using the Envision (Perkin Elmer) at 665 nm and […]. The ratio of fluorescence at 665 nm to 620 nm was used as a readout for IL6 quantification. All samples were processed in duplicate. Readings were normalized to DMSO treated cells and normalized activities were utilized for EC50 calculations using the dose-response log (inhibitor) vs. response-variable slope (four parameters) nonlinear regression feature available in GraphPad Prism 5.0 (or Dotmatics). For EC50 of >10 μM, the percent inhibition at 10 μM is provided.

Row | Compound | EC50 [1] [nM] | EC50 [2] [nM] | EC50 [3] [nM] | EC50 [4] [nM]
1 | CN(C)Cc1cncc(-c2cc3c(-c4cc5c(N6CCN(C)CC6)cccc5[nH]4)n[nH]c3cn2)c1 [Compound 237, N,N-Dimethyl-1-(5-(3-(4-(4-methylpiperazin-1-yl)-1H-indol-2-yl)-1H-pyrazolo[3,4-c]pyridin-5-yl)pyridin-3-yl)methanamine] | 3400 | 3800 | 7320 | 3610
2 | CCCCC(=O)Nc1cncc(-c2cc3c(-c4cc5c(N6CCN(C)CC6)cccc5[nH]4)n[nH]c3cn2)c1 [Compound 243, N-(5-(3-(4-(4-Methylpiperazin-1-yl)-H-indol-2-yl)-1H-pyrazolo[3,4-c]pyridin-5-yl)pyridin-3-yl)pentanamide] | 1050 | 2140 | 1010 | 3230
3 | CN1CCN(c2cccc3[nH]c(-c4n[nH]c5cnc(-c6cncnc6)cc45)cc23)CC1 [Compound 251, 3-(4-(4-Methylpiperazin-1-yl)-1H-indol-2-yl)-5-(pyrimidin-5-yl)-1H-pyrazolo[3,4-c]pyridine] | 1520 | 1690 | 1690 | 1080
4 | CC(C)CC(=O)Nc1cncc(-c2cc3c(-c4cc5ccccc5[nH]4)n[nH]c3cn2)c1 [Compound 254, N-(5-(3-(1H-Indol-2-yl)-1H-pyrazolo[3,4-c]pyridin-5-yl)pyridin-3-yl)-3-methylbutanamide] | 154 | 1270 | 139 | 200
5 | c1cncc(-c2cc3c(-c4cc5ccccc5[nH]4)n[nH]c3cn2)c1 [Compound 256, 3-(1H-Indol-2-yl)-5-(pyridin-3-yl)-1H-pyrazolo[3,4-c]pyridine] | 185 | 2250 | 51 | 56
6 | c1cc(-c2ccoc2)c2cc(-c3n[nH]c4cnc(-c5ccncc5)cc34)[nH]c2c1 [Compound 326, 3-(4-(Furan-3-yl)-1H-indol-2-yl)-5-(pyridin-4-yl)-1H-pyrazolo[3,4-c]pyridine] | 157 | 103 | 1390 | 5080
7 | CCC(=O)Nc1cncc(-c2cc3c(-c4cc5c(-c6cccs6)cccc5[nH]4)n[nH]c3cn2)c1 [Compound 337, N-(5-(3-(4-(Thiophen-2-yl)-1H-indol-2-yl)-1H-pyrazolo[3,4-c]pyridin-5-yl)pyridin-3-yl)propionamide] | 911 | 3420 | 387 | 7120
8 | CN(C)c1cncc(-c2cc3c(-c4cc5c(-c6cccs6)cccc5[nH]4)n[nH]c3cn2)c1 [Compound 343, N,N-Dimethyl-5-(3-(4-(thiophen-2-yl)-1H-indol-2-yl)-1H-pyrazolo[3,4-c]pyridin-5-yl)pyridin-3-amine] | 1130 | 696 | 134 | 7750
9 | CCCC(=O)Nc1cncc(-c2cc3c(-c4cc5c(-c6cccs6)cccc5[nH]4)n[nH]c3cn2)c1 [Compound 353, N-(5-(3-(4-(Thiophen-2-yl)-1H-indol-2-yl)-1H-pyrazolo[3,4-c]pyridin-5-yl)pyridin-3-yl)butyramide] | 4910 | 4010 | 56 | 1890
10 | c1ccc(CNCc2cncc(-c3cc4c(-c5cc6c(-c7cccs7)cccc6[nH]5)n[nH]c4cn3)c2)cc1 [Compound 360, N-Benzyl-1-(5-(3-(4-(thiophen-2-yl)-1H-indol-2-yl)-1H-pyrazolo[3,4-c]pyridin-5-yl)pyridin-3-yl)methanamine] | 1780 | 3470 | 373 | 1430
11 | CN(C)CCNc1cc(F)cc(-c2cccc3[nH]c(-c4n[nH]c5cnc(-c6cncc(NC(=O)Cc7ccccc7)c6)cc45)cc23)c1 [Compound 458, N-(5-(3-(4-(3-((2-(Dimethylamino)ethyl)amino)-5-fluorophenyl)-1H-indol-2-yl)-1H-pyrazolo[3,4-c]pyridin-5-yl)pyridin-3-yl)-2-phenylacetamide] | 3590 | 4550 | 2840 | 3300
